Measured values as given in patent US20200348288A1, “A method and a system for analysis of cardiomyocyte function” (IMEC VZW, priority 2017, published 2020).

System: cardiomyocytes
Test: analysis of cardiomyocyte function (microelectrode array recording with simultaneous reflective lensfree imaging) before and after administering of a drug
Assay type: cell-based
Conditions: after vs before administering of drug, FIG. 5
Source text: During or in-between measurements, a drug may be administered 210 to the cardiomyocytes in order to allow predicting of adverse effects on electrical and/or contractile function of the cardiomyocytes.
After drug treatment, analysis 212 on the cardiomyocytes is again performed. The electrical and/or contractile representations before and after drug treatment may be compared in order to predict adverse effects.
The method further comprises recording 304 electrical signals from the cardiomyocytes. The electrical signals may be acquired by the microelectrode array 112, which may be arranged in contact with the cardiomyocytes on the substrate 110. The electrical signals may further be transferred to readout circuitry 120 recording electrical signals received from the microelectrode array 112.
The method further comprises simultaneously with the recording 304, acquiring 306 a sequence of images. Each image may be acquired by detecting light wavefront information in reflective lensfree imaging and reconstructing the image of the cardiomyocytes based on the detected light wavefront information.
The method further comprises determining 308 an electrical representation relating to an intracellular and/or extracellular action potential, and/or an impedimetric electrical image of a cardiomyocyte based on the recorded electrical signals. […]

SMILES: Cc1ccc2c(c1)C(=O)C1(O)CCN(c3ccccc3)C1=N2 (centres unmarked) [blebbistatin]
- contractile function of the cardiomyocytes (contractile representation): severe adverse effects
- electrical function of the cardiomyocytes (electrical representation): not affected
